The test addresses T1, soybean lipoxygenase (Glycine max, UniProt P08170).
T1 construct: gene LOX1.1
T1 sequence (P08170 1-839): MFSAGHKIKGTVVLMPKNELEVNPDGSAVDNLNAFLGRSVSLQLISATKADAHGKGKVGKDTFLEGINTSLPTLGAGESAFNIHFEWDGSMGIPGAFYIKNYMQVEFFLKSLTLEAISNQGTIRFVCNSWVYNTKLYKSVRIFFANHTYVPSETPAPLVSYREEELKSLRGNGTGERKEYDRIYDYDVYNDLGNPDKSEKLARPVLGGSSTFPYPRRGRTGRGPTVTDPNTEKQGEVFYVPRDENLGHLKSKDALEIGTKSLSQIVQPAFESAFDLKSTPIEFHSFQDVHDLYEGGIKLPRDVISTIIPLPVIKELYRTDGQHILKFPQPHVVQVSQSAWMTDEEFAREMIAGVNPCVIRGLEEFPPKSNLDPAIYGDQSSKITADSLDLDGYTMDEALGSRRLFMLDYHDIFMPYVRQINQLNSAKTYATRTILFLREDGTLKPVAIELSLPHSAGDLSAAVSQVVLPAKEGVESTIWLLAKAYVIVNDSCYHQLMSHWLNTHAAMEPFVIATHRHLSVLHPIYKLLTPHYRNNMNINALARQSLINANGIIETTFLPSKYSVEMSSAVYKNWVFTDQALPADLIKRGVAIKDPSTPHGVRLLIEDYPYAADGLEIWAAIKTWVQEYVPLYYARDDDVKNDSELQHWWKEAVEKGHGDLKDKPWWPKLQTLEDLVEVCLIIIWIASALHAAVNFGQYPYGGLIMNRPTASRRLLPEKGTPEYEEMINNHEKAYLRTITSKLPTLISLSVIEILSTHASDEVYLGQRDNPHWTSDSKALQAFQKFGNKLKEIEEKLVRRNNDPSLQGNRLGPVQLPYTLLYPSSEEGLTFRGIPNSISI
The test can be described thus: soybean lipoxygenase inhibition assay, % inhibition at […] (standard). The class given is biochemical.

We go through 1 compound from publication PMC9294463, “Green Synthesis of Thiazolidine-2,4-dione Derivatives and Their Lipoxygenase Inhibition Activity With QSAR and Molecular Docking Studies” (Frontiers in Chemistry, 2022).

A word on the inhibition: it is the share of the control response that was lost under treatment. A low value points to little suppression. Compound `C[C@H](Cc1ccc(O)c(O)c1)[C@@H](C)Cc1ccc(O)c(O)c1` [NDGA, nordihydroguaiaretic acid] registered an inhibition at 100 µM of 80.8%.
